One data set in a line: Kinetic solubility. Type of data set: physicochemical. The settings on record: PBS with 1% DMSO; 1% DMSO in PBS, pH 7.4. How it is done: The next step was an in vitro ADMET profiling of the best seven compounds so far: 9, 11, 14, 19, 20, 21, and 27. The compounds were tested for their kinetic solubility (1% DMSO in PBS, pH 7.4), lipophilicity (chromatographic Log D7.4 value), cellular permeability (using Caco-2 cells), and metabolic stability (using mouse and human liver S9 fractions) (see Table 3).
The desired compounds were sequentially diluted in DMSO in a 96-well plate. 1.5 µL of each well were transferred into another 96-well plate and mixed with 148.5 µL of PBS. Plates were shaken for 5 min at 600 rpm at room temperature (r.t.), and the absorbance at 620 nm was measured. Absorbance values were normalized by blank subtraction and plotted using GraphPad Prism 8.4.2 (GraphPad Software, San Diego, CA, USA). Solubility (S) was determined based on the First X value of AUC function using a threshold of 0.005. […]

The nature of data set [1]: Metabolic stability in human liver S9 fraction. Type of data set: in vitro ADME. The settings on record: human liver S9, 1 μM compound. On the procedure: (§1) The next step was an in vitro ADMET profiling of the best seven compounds so far: 9, 11, 14, 19, 20, 21, and 27. The compounds were tested for their kinetic solubility (1% DMSO in PBS, pH 7.4), lipophilicity (chromatographic Log D7.4 value), cellular permeability (using Caco-2 cells), and metabolic stability (using mouse and human liver S9 fractions) (see Table 3). […]
(§2) 1.7 Metabolic Stability in Liver S9 Fractions
(§3) For the evaluation of combined phase I and phase II metabolic stability, the compound (1 μM) was incubated with 1 mg/mL pooled mouse liver S9 fraction (Xenotech, Kansas City, USA) or human liver S9 fraction (Corning, USA), 2 mM NADPH, 1 mM UDPGA, 10 mM MgCl 2, 5 mM GSH and 0.1 mM PAPS at 37 °C for 240 min. The metabolic stability of testosterone, verapamil and ketoconazole were determined in parallel to confirm the enzymatic activity of mouse S9 fractions, for human S9 testosterone, diclofenac and propranolol were used. The incubation was stopped after defined time points by precipitation of aliquots of S9 enzymes with 2 volumes of cold acetonitrile containing internal standard (150 nM diphenhydramine). Samples were stored on ice until the end of the incubation and precipitated protein was removed by centrifugation (15 min, 4 °C, 4,000 g). Concentration of the remaining test compound at the different time points was analyzed by HPLC-MS/MS (TSQ Quantum Access MAX, Thermo Fisher, Dreieich, Germany) and used to determine half -life (t1/2). Values are means of three

The nature of data set [2]: Metabolic stability in mouse liver S9 fraction. Type of data set: in vitro ADME. The settings on record: pooled liver S9 fraction, mouse liver S9, 1 μM compound. How it is done:
as §1, §2, §3

For data set [3], the system named is LANA-mediated replication of TR-containing plasmid pGTR4:73 in HEK293 cells. Description: Cell-based replication assay (Southern blot). The settings on record: Homo sapiens. The text has this:
Figure 3 (A) Illustration of the replication assay. […] (C) Bar graph of the intensity of the pGTR4:73 band after digestion with MfeI and DpnI on the Southern blot shown in panel B at different concentrations for compound 20. Values are means of two replicates.
For the replication assay (Figure 3A), plasmids containing four copies of the terminal repeat of the viral genome and a LANA expression cassette are transfected into HEK293 cells. […] The cells that can express LANA will now amplify the plasmids with the help of LANA and maintain them over several days of cell growth. Where LANA is not expressed, only the transfected plasmids remain and are slowly thinned out by cell growth. After transfection, cells are treated with the compounds or DMSO and allowed to grow for three days. Then, the plasmid DNA is isolated from the cell. The DNA is digested in two separate batches. First, to linearize them (MfeI) and second, with an enzyme (DpnI) that only digests DNA that has a specific methylation pattern derived from the bacteria, in which these plasmids had been amplified. […] One batch contains both enzymes, and only the replicated linearized DNA remains there. The second batch (control) contains only the linearizing enzyme. […] The DNA is separated on a gel by electrophoresis and transferred to a membrane for immobilization (Southern blot). The DNA can then be visualized on this membrane using an enzyme-labeled probe, since the enzyme can generate chemiluminescence with a specific substrate. This assay is designed to specifically probe the LANA-mediated replication of plasmid DNA indicating on-target cellular activity. We performed the assay in a concentration range between 15.625 and 62.5 μM. For compound 20, we observed the strongest inhibitory effect (Figure 3B,C).
This assay is based on protocols described previously and was modified as described in the following. 4 8 x 10^5 HEK 293 cells were plated per well in a 6-well plate. […]

Where two headings read alike, the source gives them in different places.

Broadly, the kinetic solubility is the concentration staying in solution when a stock, usually in DMSO, is diluted into the medium. One may read the inhibition as the change of the read-out against control, counted positive when it falls.

With `COc1ccc(-c2cc(C)c(-n3cc(-c4ccc(C(=O)O)cc4)nn3)cn2)c(Cl)c1` [Compound 20], the solubility (kinetic) at 5 min in “Kinetic solubility” was over 200 µM. Besides, the microsomal CLint at 1 µM in data set [1] (read-out: MetStab Human Liver S9 Clint) and in data set [2] (read-out: MetStab Mouse Liver S9 Clint) was under 5.8 µL/min/mg throughout. Further, the half-life at 1 µM in data set [1] (read-out: MetStab Human Liver S9 t1/2) and in data set [2] (read-out: MetStab Mouse Liver S9 t1/2) was over 2 h throughout. In data set [3] (72 h, HEK293 cells, 62.5 μM, three days of treatment), this compound registered an inhibition at 62.5 µM of 67%. In addition, the IC50 in data set [3] (72 h, HEK293 cells, three days of treatment, estimated from Southern blot, read-out: IC50 value (southern blot)) is 33.2 ± 3.6 µM; in data set [3] (Fig S5B, HEK293 replication assay, read-out: x0 of logistic fit, sigmoidal plot of southern blot (converted)) it was 33.2 µM.

The values are drawn from PMC10424179, “Disrupting Kaposi’s Sarcoma-Associated Herpesvirus (KSHV) Latent Replication with a Small Molecule Inhibitor” (Journal of Medicinal Chemistry, 2023).
